Measured values from patent US20160220709A1, “PHOTOACOUSTIC IMAGING CONTRAST AGENT COMPOSITION” (Agency for Science, Technology and Research, priority 2013, published 2016).

Tests used:
Water solubility = type: physicochemical
[1] = In vitro photoacoustic (PA) signal measurement in polyethylene tubing, PA microscopy at 410 nm
Text: The microscopy system consists of laser pulse generation and delivery, PA signal reception, and image reconstruction and display. Laser pulses, 4 ns wide, were generated at a frequency of 10 Hz by using an optical parametric oscillator (Surlite OPO Plus, Continuum, USA). The laser was pumped by a frequency-tripled Nd:YAG Q-switched laser (Surlite II-10, Continuum, USA). The incident wavelength was set at 410 nm. The custom-made 50-MHz ultrasonic transducer (Acoustic Sensor, Taiwan) has a −6 dB fractional bandwidth of 57.5%, focal length of 9 mm, and a 6 mm active element, offering an axial resolution of 32 μm and a lateral resolution of 61 μm.
Laser energy was delivered using a 1-mm multimodal fiber. The fiber tip was coaxially aligned with a convex lens, an axicon, a plexiglass mirror, and an ultrasonic transducer on an optical bench, forming dark-field illumination that was confocal with the focal point of the ultrasonic transducer. The incident energy density on the sample surface was well within American National Standards Institute (ANSI) safety limits. The transducer was immersed in an acrylic water tank during the imaging process, and the hole at the bottom of the tank was sealed with a piece of […] thick polyethylene film. A thin layer of ultrasonic gel was applied as a PA conductive medium, which was then attached to the thin polyethylene film to ensure reliable coupling of the PA waves with the water tank. The PA signals received by the ultrasonic transducer were pre-amplified by a low-noise amplifier (noise FIG. 1.2 dB, gain 55 dB, AU-3A-0110, USA), cascaded to an ultrasonic receiver (5073 PR, Olympus, USA) and then digitized and sampled by a computer-based 14-bit analog to digital (A/D) card (CompuScope 14220, GaGe, USA) at a 200-MHz sampling rate for data storage.
Fluctuations in the laser energy were monitored with a photodiode (DET36A/M, Thorlabs, USA). The recorded photodiode signals were measured prior to the experiment to compensate for PA signal variations caused by laser-energy instability. The achievable penetration depth of the current PA microscopy system was 3 mm with approximately 18-dB SNR, where SNR is defined as the ratio of the signal peak value to the root-mean-square value of the noise. Three scan types can be provided by this system: A-line (i.e., one-dimensional images where the axis represents the imaging depth), B-scan (i.e., two-dimensional images where one axis is the lateral scanning distance and the other is the imaging depth), and C-scan (i.e., projection images from the three-dimensional images). The amplitude of the envelope-detected PA signals was used in the subsequent functional imaging analysis.
For both in vivo and in vitro imaging, the laser was pulsed with a pulse repetition rate of 10 Hz and coupled by a lens to an optical fiber to illuminate the ROI. A window at the bottom of the water container was sealed with an optically and ultrasonically transparent, disposable polyethylene film. After a commercially available ultrasound gel was applied to the brain for acoustic coupling, the brain was placed between the water container and the custom-made stereotaxic apparatus for imaging.
All the PA images in this study were acquired at 410 nm without any need for signal averaging, and yet the contrast quality of the PA images is high. […]

[2] = In vivo PA imaging of rat cortical vasculature (superior sagittal sinus); conditions: 200 μL of 30 μM, retro-orbital injection, 20 min after administration, 410 nm
Text: Cortical vasculature of the rat was in vivo imaged at 32×61 μm resolution, with a designed 50-MHz dark-field confocal PA microscopy system (FIG. 4); the PA signal at λ410 was acquired. The SSS is the largest vein in the rodent brain cortex, and a selected section of it is the region-of-interest (ROI) in this study (FIG. 5B). There is strong clinical evidence that controlling cerebral venous blood flow is critically important for patients with severe traumatic brain injury as well as for patients undergoing cardiac surgery. Then, the SSS is a large central cerebral vein at cortical layer, and collects blood flow from both hemispheres before emptying into the internal jugular vein. That is, accurate measurements of blood flow changes in the SSS are thus very important.
Six male Wistar rats (NUS-CARE, Singapore), weighing 250-300 grams, were used. Animal experiments were conducted in accordance with guidelines from Institutional Animal Care and Use Committee (IACUC) at the National University of Singapore. The rats were fasted for 24 h prior to the imaging experiments, but were given water ad libitum. They were anesthetized with isoflurane (2 to 3% in 100% O2), mounted in a dorsal position over a custom-made acrylic stereotaxic holder, and the skin and muscle on the skull were removed to expose the bregma landmark. […]

[3] = system: oral squamous cell carcinoma (OSCC) cells; test: Cell viability study (MTS / CCK8 cytotoxicity assay); type: cell-based; conditions: 0.01-30 μM, 24 h incubation
Protocol: Five thousand oral squamous cell carcinoma (OSCC) cells were seeded in a 96-well plate for 24 h before a solution of 2 in DMEM ([…]) with the indicated concentrations (0.01-30 μM) was introduced into each well. After incubation for 24 h, 10 μL of CCK8 (cell counting kit-8, Sigma-Aldrich) was added to each well. Cell absorbance was measured with a SpectraMax 384 Plus spectral analyser after 4 h, with 450 nm excitation.

| Compound | water solubility (Water solubility) | PA signal relative to that for single-walled carbon nanotubes (SWNT) [1] | PA signal relative to that for 1a ([1]; water/ethanol (60:40, v/v)) | PA signal relative to that for 1b ([1]; water/ethanol (60:40, v/v)) | PA signal, rank among the three carbonyl clusters ([1]; water/ethanol (60:40, v/v)) | clarity of brain vasculature in PA B-scan image compared to intrinsic optical contrast [2] | concentration down to which PA signal of aqueous solution is adequate ([1]; aqueous solution, B-scan) | effect on viability of cells (cytotoxicity) [3] |
| --- | --- | --- | --- | --- | --- | --- | --- | --- |
| [C-]#[O+].[C-]#[O+].[C-]#[O+].[C-]#[O+].[C-]#[O+].[C-]#[O+].[C-]#[O+].[C-]#[O+].[C-]#[O+].[C-]#[O+].[C-]#[O+].[C-]#[O+].[Os].[Os].[Os] [1c, Os3(CO)12] | low water solubility | 2.4 times higher | about 1.5 times higher | ~1.2 times higher | highest PA signal |  |  |  |
| Os3(CO)10(μ-H)μ-S(CH2)2COO^−Na^+ [compound 2] | water-soluble |  |  |  |  | greater clarity | 2.5 µM | little effect on the viability of cells |
